Data: ChEMBL document CHEMBL4190408 (J Med Chem, 2018)

Tests used:
[1] = Thermodynamic solubility of the compound in pH 7.4 solution after 90 mins by UVLC-MS analysis; type: physicochemical; details: buffer, pH 7.4, 1.5 h
[2] = target: Voltage-gated inwardly rectifying potassium channel KCNH2 (Homo sapiens, UniProt Q12809)
[3] = target: Cytochrome P450 3A4 (Homo sapiens, UniProt P08684); details: liver microsomes
[4] = physchem; details: buffer, pH 7.4
[5] = in vitro; details: mouse, liver microsomes
[6] = buffer, 1.5 h, pH 7.4
[7] = buffer, pH 7.4, 1.5 h
[8] = in vitro; details: human, liver microsomes

Cytochrome P450 3A4, sequence (P08684 whole entry): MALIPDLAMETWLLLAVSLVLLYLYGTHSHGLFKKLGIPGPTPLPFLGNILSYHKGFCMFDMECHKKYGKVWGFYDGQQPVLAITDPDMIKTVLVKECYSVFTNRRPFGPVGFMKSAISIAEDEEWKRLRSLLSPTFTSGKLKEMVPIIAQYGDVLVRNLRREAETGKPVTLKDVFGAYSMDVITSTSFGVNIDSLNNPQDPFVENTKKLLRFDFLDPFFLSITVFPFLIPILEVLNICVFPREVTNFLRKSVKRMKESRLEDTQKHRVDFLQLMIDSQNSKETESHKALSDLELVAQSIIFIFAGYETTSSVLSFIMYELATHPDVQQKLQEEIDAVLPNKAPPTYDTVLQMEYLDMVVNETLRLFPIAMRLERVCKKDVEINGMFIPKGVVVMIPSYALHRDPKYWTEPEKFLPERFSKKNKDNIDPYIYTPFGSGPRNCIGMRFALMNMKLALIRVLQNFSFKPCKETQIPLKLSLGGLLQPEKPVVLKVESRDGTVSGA
Voltage-gated inwardly rectifying potassium channel KCNH2, sequence (Q12809 whole entry): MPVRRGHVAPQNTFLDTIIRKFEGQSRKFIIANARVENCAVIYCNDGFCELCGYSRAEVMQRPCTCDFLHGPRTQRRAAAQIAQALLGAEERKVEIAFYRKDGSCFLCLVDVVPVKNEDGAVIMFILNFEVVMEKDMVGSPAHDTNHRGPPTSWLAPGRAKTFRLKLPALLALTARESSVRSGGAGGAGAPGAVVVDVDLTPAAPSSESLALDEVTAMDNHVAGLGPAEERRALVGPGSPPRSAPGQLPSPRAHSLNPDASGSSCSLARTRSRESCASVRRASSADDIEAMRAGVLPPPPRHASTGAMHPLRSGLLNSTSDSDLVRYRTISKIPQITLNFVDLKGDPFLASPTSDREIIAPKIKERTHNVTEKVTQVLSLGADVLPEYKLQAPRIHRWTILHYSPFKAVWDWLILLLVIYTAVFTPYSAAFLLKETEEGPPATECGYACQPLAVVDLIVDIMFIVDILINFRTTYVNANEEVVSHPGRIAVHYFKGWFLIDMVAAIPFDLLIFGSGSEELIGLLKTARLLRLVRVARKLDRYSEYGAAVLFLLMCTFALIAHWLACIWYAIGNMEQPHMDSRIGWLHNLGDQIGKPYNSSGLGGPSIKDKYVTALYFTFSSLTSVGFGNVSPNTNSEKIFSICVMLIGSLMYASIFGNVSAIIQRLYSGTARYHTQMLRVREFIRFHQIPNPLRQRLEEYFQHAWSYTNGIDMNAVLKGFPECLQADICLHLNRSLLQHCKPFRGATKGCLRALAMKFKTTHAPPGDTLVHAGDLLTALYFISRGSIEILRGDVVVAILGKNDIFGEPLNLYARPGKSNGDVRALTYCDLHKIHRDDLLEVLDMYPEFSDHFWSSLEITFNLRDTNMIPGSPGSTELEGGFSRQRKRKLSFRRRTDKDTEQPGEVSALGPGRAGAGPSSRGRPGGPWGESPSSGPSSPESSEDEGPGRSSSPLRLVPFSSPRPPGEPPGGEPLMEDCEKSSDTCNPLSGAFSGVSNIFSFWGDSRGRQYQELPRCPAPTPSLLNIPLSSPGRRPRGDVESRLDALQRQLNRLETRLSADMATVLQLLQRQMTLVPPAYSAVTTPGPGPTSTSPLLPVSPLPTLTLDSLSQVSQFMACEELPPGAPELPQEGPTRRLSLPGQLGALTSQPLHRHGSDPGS

Row | Compound | Therm_solubility [1] | IC50 [2] | IC50 [3] | solubility kinetic at 1.5 h [4] [µM] | microsomal CLint at 0.75 h, 3 µM [5] [µL/min/mg] | Kinetic_solubility [6] | logD [7] | microsomal CLint at 0.75 h, 3 µM [8] [µL/min/mg]
1 | COc1ccc(NC(=O)N2C3CCC2CN(c2nc(N)nc4scnc24)C3)cc1 | Nd(Insoluble) | Nd(Insoluble) | Nd(Insoluble) | > 350 |  |  |  | 
2 | COc1ccc(NC(=O)N2CC3CCC(C2)N3c2nc(N)nc3scnc23)cc1 | Nd(Insoluble) | Nd(Insoluble) | Nd(Insoluble) | > 350 |  |  |  | 
3 | Nc1nc(N2CCN(C(=O)COc3ccc(Cl)cc3)CC2)c2nc(-c3cccnc3)sc2n1 |  | Nd(Insoluble) | Nd(Insoluble) |  | 133 | Nd(Insoluble) | Nd(Insoluble) | 34
